Source: patent US20060046966A1, “Antipicornaviral compounds and compositions, their pharmaceutical uses, and materials for their synthesis” (Agouron Pharmaceuticals, Inc., priority 1998, published 2006)
Like-named read-outs stand apart in the source and are kept apart here.

What was measured:
[1] = tested on: Coxsackievirus type A-21 (CAV-21); experiment: Anticoxsackieviral cell culture assay, CAV-21; format: cell-based; details: 48 h, Strain CAV-21, H1-HeLa cells, two days, XTT, read-out: EC50
Procedure: Coxsackievirus types A-21 (CAV-21) and B3 (CVB-3) were purchased from American Type Culture Collection (ATCC, Rockville, Md.). Virus stocks were propagated and antiviral assays were performed in H1-HeLa cells (ATCC). Cells were grown in minimal essential medium with 10% fetal bovine serum (Life Technologies, Gaithersburg, Md.).
The ability of compounds to protect cells against either CAV-21 or CVB-3 infection was measured by the XTT dye reduction method. This method is described in Weislow et al., J. Natl. Cancer Inst. 1989, vol. 81, 577-586. H1-HeLa cells were infected with CAV-21 or CVB-3 at a multiplicity of infection (m.o.i.) of 0.025 or 0.075, respectively, or mock-infected with medium only. H1-HeLa cells were plated at 4×10^4 cells per well in a 96-well plate and incubated with appropriate concentrations of the test compound. One day (CVB-3) or two days (CAV-21) later, XTT/PMS was added to test plates and the amount of formazan produced was quantified spectrophotometrically at 450/650 nm. The EC50 was calculated as the concentration of compound that increased the formazan production in compound-treated, virus-infected cells to 50% of that produced by compound-free, uninfected cells. The 50% cytotoxic dose (CC50) was calculated as the concentration of compound that decreased formazan production in compound-treated, uninfected cells to 50% of that produced in compound-free, uninfected cells. The therapeutic index TI) was calculated by dividing the CC50 by the EC50.
The compounds were tested against control compounds WIN 54954 (obtained from Sterling-Winthrop Pharmaceuticals), Pirodavir (obtained from Janssen Pharmaceuticals), and Pleconaril (prepared according to Diana et al., J. Med. Chem. 1995, 38, 1355).

[2] = tested on: Echovirus type 11 (EV 11); experiment: Anti-echoviral cell culture assay, EV 11; format: cell-based; details: Enterovirus B, MRC5, 96 h; Strain EV-11; MRC-5 cells; four days; XTT; read-out: EC50
Procedure: Echovirus type 11 (EV 11) and enterovirus type 70 (EV 70) were purchased from ATCC (Rockville, Md.). Virus stocks were propagated and antiviral assays were performed in MRC-5 cells (ATCC). Cells were grown in minimal essential medium with 10% fetal bovine serum (Life Technologies, Gaithersburg, Md.).
The ability of compounds to protect cells against either EV 11 or EV 70 infection was measured by the XTT dye reduction method (Weislow et al., J. Natl. Cancer Inst. 1989, vol. 81, 577-586). MRC-5 cells were infected with EV 11 or EV 70 at an m.o.i. of 0.003 or 0.004, respectively, or mock-infected with medium only. Infected or uninfected cells were added at 1×10^4 cells per well and incubated with appropriate concentrations of compound. Four days later, XTT/PMS was added to test plates, and the amount of formazan produced was quantified spectrophotometrically at 450/650 nm. The EC50 was calculated as the concentration of compound that increased the formazan production in compound-treated, virus-infected cells to 50% of that produced by compound-free, uninfected cells. The 50% cytotoxic dose (CC50) was calculated as the concentration of compound that decreased formazan production in compound-treated, uninfected cells to 50% of that produced in compound-free, uninfected cells. The therapeutic index (TI) was calculated by dividing the CC50 by the EC50.
The compounds were tested against control compounds Pirodavir (obtained from Janssen Pharmaceuticals) and Pleconaril (prepared according to Diana et al., J. Med. Chem. 1995, vol. 38, 1355). Antiviral data obtained for the test compounds against strain EV 11 and EV 70 are shown below in Table 5.

HRV (13) = experiment: Antirhinoviral H1-HeLa cell culture assay, HRV serotype 13; format: cell-based, human rhinovirus; details: Human rhinovirus sp., H1-HeLa, H1-HeLa cells, XTT
Procedure: (§1) In this cell protection assay, the ability of compounds to protect cells against HRV infection was measured by the XTT dye reduction method, which is described in Weislow et al., J. Natl. Cancer Inst. 1989, vol. 81, 577-586.
(§2) H1-HeLa cells were infected with HRV-14 at a multiplicity of infection (m.o.i.) of 0.13 (virus particles/cell) or mock-infected with medium only. Infected or mock-infected cells were resuspended at 8×10^5 cells per mL, and incubated with appropriate concentrations of the compounds to be tested. Two days later, XTT/PMS was added to test plates and the amount of formazan produced was quantified spectrophotometrically at 450/650 nm. The EC50 value was calculated as the concentration of compound that increased the percentage of formazan production in compound-treated, virus-infected cells to 50% of that produced by compound-free, mock-infected cells. The 50% cytotoxic dose (CC50) was calculated as the concentration of compound that decreased the percentage of formazan produced in compound-treated, mock-infected cells to 50% of that produced by compound-free, mock-infected cells. The therapeutic index (TI) was calculated by dividing the CC50 value by the EC50 value.
(§3) All strains of human rhinovirus (HRV) for use in this assay were purchased from American Type Culture Collection (ATCC), except for HRV serotype-14 (produced from the infectious cDNA clone constructed by Dr. Robert Rueckert, Institute for Molecular Virology, University of Wisconsin, Madison, Wis.). HRV stocks were propagated and viral assays were performed in H1-HeLa cells (ATCC). Cells were grown in minimal essential medium with 10% fetal bovine serum, available from Life Technologies (Gaithersburg, Md.).
(§4) The compounds were tested against control compounds WIN 51711, WIN 52084, and WIN 54954 (obtained from Sterling-Winthrop Pharmaceuticals), Pirodavir (obtained from Janssen Pharmaceuticals), and Pleconaril (prepared according to the method described in Diana et al., J. Med. Chem 1995, vol. 38, 1355). […]

HRV (12) = experiment: Antirhinoviral H1-HeLa cell culture assay, HRV serotype 12; format: cell-based; details: Human rhinovirus sp., H1-HeLa cells, XTT
Procedure: as §1
as §2, with “value. […]” for “value.”

HRV (87) = experiment: Antirhinoviral H1-HeLa cell culture assay, HRV serotype 87; format: cell-based; details: Human rhinovirus sp., H1-HeLa cells, XTT
Procedure: as §1
as §2, with “value. […]” for “value.”

HRV (17) = experiment: Antirhinoviral H1-HeLa cell culture assay, HRV serotype 17; format: cell-based, human rhinovirus; details: Human rhinovirus sp., H1-HeLa cells, XTT
Procedure: as §1, §2, §3, §4

HRV (3) = experiment: Antirhinoviral H1-HeLa cell culture assay, HRV serotype 3; format: cell-based, human rhinovirus; details: Human rhinovirus sp., H1-HeLa, H1-HeLa cells, XTT
Procedure: as §1, §2, §3, §4

HRV-14 = experiment: Antirhinoviral H1-HeLa cell culture assay, HRV-14; format: cell-based, human rhinovirus; details: Rhinovirus B, HRV14, H1-HeLa, HRV serotype-14, H1-HeLa cells
Method in brief: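 XTT cell-protection assay in H1-HeLa cells infected with rhinovirus or mock-infected, then incubated with compound for two days; formazan was read at 450/650 nm. EC50 is the concentration restoring infected-cell formazan to 50% of compound-free mock-infected cells; CC50 is the concentration halving formazan in mock-infected cells.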

HRV (1A) = experiment: Antirhinoviral H1-HeLa cell culture assay, HRV serotype 1A; format: cell-based; details: Human rhinovirus sp., H1-HeLa cells, XTT
Procedure: as §1, §2, §3
The compounds were tested against control compounds WIN 51711, WIN 52084, and WIN 54954 (obtained from Sterling-Winthrop Pharmaceuticals), Pirodavir (obtained from Janssen Pharmaceuticals), and Pleconaril (prepared according to the method described in Diana et al., J. Med. Chem 1995, vol. 38, 1355). Antiviral data obtained for the test compounds are shown in Tables 1 and 3, where all data are for HRV serotype-14 unless otherwise noted in parentheses.

**Q.** With CCOC(=O)/C=C/[C@H](C[C@@H]1CCNC1=O)NC(=O)[C@@H](CC(=O)[C@@H](NC(=O)c1cc(C)on1)C(C)C)Cc1ccc(F)cc1 [Compound B-2, Ethyl-3-{(5′-Methylisoxazole-3′-carbonyl)-L-ValΨ(COCH2)-L-(4-F-Phe)-L-((S)-Pyrrol-Ala)}-E-Propenoate] as the compound, how does the EC50 [1] read?
**A.** 160 nM

**Q.** And the EC50 [2]?
**A.** 10 nM

**Q.** What about the EC50 (HRV (13)) of the same compound?
**A.** 10 nM

**Q.** What about the EC50 (HRV (12)) of the same compound?
**A.** 50 nM

**Q.** And the EC50 (HRV (87))?
**A.** 60 nM

**Q.** And the EC50 (HRV (17))?
**A.** 10 nM

**Q.** And the EC50 (HRV (3))?
**A.** 20 nM

**Q.** And the EC50 (HRV-14; Table 1, XTT dye reduction, read-out: Cell Protection EC50)?
**A.** 5 nM

**Q.** What about the EC50 (HRV-14; Table 3, XTT, read-out: EC50) of the same compound?
**A.** 5 nM

**Q.** What about the EC50 (HRV (1A)) of the same compound?
**A.** 20 nM
